Test results published in US10336702B2, “Pharmaceutically active compounds” (BERGENBIO ASA, priority 2015, dated 2019).

Tests used:
Akt2 = molecular target: T1, Akt2 (Homo sapiens, UniProt P31751); assay: Akt activation assay (PDK1-mediated activation, LANCE Ultra crosstide TR-FRET), Akt2; format: biochemical; conditions: read-out: Biological Assay 1 IC50 (nM) Akt2
T1 construct: unspecified tag, removed (detagged) (cleaved yes); purchased SignalChem and Proteros (Akt2); Merck Millipore (PDK1) 14-452 (PDK1); none given for Akt2
T1 sequence (P31751 whole entry): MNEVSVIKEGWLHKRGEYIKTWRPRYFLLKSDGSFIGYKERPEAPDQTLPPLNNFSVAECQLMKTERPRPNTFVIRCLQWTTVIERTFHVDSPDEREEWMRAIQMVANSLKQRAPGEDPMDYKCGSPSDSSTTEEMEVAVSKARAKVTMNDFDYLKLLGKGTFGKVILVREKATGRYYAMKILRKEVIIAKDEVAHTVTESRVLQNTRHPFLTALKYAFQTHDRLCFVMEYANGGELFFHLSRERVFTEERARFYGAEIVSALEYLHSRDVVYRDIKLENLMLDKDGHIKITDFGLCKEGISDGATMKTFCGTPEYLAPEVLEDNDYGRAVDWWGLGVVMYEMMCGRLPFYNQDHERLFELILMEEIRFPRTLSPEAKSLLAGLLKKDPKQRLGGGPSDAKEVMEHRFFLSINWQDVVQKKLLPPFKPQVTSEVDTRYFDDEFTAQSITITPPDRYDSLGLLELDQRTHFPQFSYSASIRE
How it was run: (§1)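 Compound + Akt preinc.; start w/ PDK1 5 nM, DOPS/DOPC 5.5 μM each, PIP3 0.55 μM, ATP 100 μM, Ulight-crosstide 100 nM; HEPES pH 7.5, 10 mM MgCl2, 2 mM DTT, 1% DMSO; 30 min; EDTA stop; Eu-Ab TR-FRET; 4-PL IC50.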

Akt3 = molecular target: T2, Akt3 (Homo sapiens, UniProt Q9Y243); assay: Akt activation assay (PDK1-mediated activation, LANCE Ultra crosstide TR-FRET), Akt3; format: biochemical; conditions: read-out: Biological Assay 1 IC50 (nM) Akt3
T2 construct: unspecified tag, removed (detagged) (cleaved yes); purchased SignalChem and Proteros (Akt3); Merck Millipore (PDK1) 14-452 (PDK1); none given for Akt3
T2 sequence (Q9Y243 whole entry): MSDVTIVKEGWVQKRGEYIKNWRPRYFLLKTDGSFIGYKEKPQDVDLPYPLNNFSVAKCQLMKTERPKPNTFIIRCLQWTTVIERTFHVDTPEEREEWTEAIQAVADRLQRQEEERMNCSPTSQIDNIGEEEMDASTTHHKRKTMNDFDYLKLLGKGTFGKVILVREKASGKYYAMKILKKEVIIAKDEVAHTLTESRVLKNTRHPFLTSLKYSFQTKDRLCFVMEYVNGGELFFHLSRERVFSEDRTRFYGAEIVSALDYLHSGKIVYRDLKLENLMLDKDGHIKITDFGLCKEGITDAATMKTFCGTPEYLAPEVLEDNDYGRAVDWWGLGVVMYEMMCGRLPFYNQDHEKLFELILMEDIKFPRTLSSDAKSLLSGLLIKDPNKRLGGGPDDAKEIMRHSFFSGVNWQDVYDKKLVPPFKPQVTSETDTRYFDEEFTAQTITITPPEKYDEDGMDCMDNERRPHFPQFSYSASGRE
How it was run: as §1

p-Akt1 in LNCaP cells = molecular target: T3, p-Akt1 in LNCaP cells (Homo sapiens, UniProt P31749); assay: Phospho-Akt cellular SureFire assay, p-Akt1 in LNCaP cells; format: cell-based; conditions: read-out: Biological Assay 2 IC50 (nM) Akt1 LNCaP
T3 construct: SureFire assays to detect cellular p-Akt1, p-Akt2 and p-Akt3 levels in WM115 cells (Akt2/3) and LNCaP cells (Akt1); endogenous in cells; host or cells: LNCaP (ECACC 89110211)
T3 sequence (P31749 whole entry): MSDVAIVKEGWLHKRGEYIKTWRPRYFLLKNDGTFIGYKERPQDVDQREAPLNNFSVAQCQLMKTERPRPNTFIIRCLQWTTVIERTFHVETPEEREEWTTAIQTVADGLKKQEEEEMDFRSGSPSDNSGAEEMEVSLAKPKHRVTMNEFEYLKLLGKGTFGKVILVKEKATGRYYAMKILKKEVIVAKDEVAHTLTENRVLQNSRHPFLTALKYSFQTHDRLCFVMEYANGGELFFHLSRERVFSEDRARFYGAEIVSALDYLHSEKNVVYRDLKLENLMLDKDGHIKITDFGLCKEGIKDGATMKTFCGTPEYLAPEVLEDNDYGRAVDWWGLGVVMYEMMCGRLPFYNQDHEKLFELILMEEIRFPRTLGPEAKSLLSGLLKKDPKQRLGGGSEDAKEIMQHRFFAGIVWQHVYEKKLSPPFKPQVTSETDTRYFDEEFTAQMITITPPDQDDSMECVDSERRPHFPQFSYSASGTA
From the text: Biological Assay 2: Phospho-Akt (p-Akt) Cellular SureFire Assays
The following describes SureFire assays to detect cellular p-Akt1, p-Akt2 and p-Akt3 levels in WM115 cells (Akt2/3) and LNCaP cells (Akt1). In the case of Akt2 and Akt3, Streptavidin-coated donor beads capture a biotinylated anti-mouse antibody that in turn recognises a mouse total Akt antibody which is specific to each isoform. The protein A-conjugated acceptor beads capture an antibody that recognises the phosphoprotein. Similarly in the Akt1 kit, the donor and acceptor beads are used to capture each antibody pair consisting of an antibody that specifically recognises Akt1 as well as an antibody that recognises the phosphoprotein. In each case, close proximity of the beads allows energy transfer from donor to acceptor.
AlphaScreen® SureFire™ Phospho-Akt1 (pThr308) Kit from Perkin Elmer (TGRA2S10K)
LNCaP cells (ECACC, 89110211) cultured in RPMI-1640 culture media (Fisher, 10665193) supplemented with 2 mM L-glutamine, 1% sodium pyruvate and 10% FBS
Cell treatment: 1×10^5 WM115 cells or 5×10^4 LNCaP cells were seeded into each well of a 96 well poly-D-Lysine coated tissue culture plate and incubated overnight at 37° C.+5% CO2. Media was removed from cells and replaced with assay buffer consisting of the full culture media described above but with 0.1% FBS instead of 10% FBS. Only WM115 cells were stimulated at 37° C.+5% CO2 for 10 min with 5 μL insulin at a final concentration of 100 nM. Cells were incubated with 5 μL of test compound at a final DMSO concentration of 0.3% for 15 min at 37° C.+5% CO2. Cell lysis was carried out according to kit instructions.
Assay format (performed in subdued lighting): 4 μL cell lysate and 5 μL reaction buffer were incubated together in the dark at room temperature for 2 h. Reaction buffer was supplemented with a 1/5 dilution of activation buffer, a 1/50 dilution of acceptor beads and in the case of the custom kits, antibodies were added at dilutions of 1/20,000 for Akt2 and 1/2,000 for Akt3.
2 μL dilution buffer, supplemented with a 1/20 dilution of donor beads was added to each well and incubated for a further 2 h. Plates were read with the EnVision® Multilabel Plate Reader and using the AlphaScreen settings. Compound IC50 was determined using a 4-parameter equation.

p-Akt2 in WM115 cells = molecular target: T4, p-Akt2 in WM115 cells (Homo sapiens, UniProt P31751); assay: Phospho-Akt cellular SureFire assay, p-Akt2 in WM115 cells; format: cell-based; conditions: insulin stimulated, read-out: Biological Assay 2 IC50 (nM) Akt2 WM115
T4 construct: SureFire assays to detect cellular p-Akt1, p-Akt2 and p-Akt3 levels in WM115 cells (Akt2/3) and LNCaP cells (Akt1); endogenous in cells; host or cells: WM115 (ECACC 91061232), insulin-stimulated
T4 sequence (P31751 whole entry): as the sequence (P31751 whole entry) above
How it was run: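 WM115 cells in 0.1% FBS medium stimulated 10 min with 100 nM insulin, then exposed to compound for 15 min at 37° C (0.3% DMSO final). Lysates assayed by AlphaScreen with anti-(pThr308)Akt and isoform-specific total Akt2 antibodies; IC50 from 4-parameter fit.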

p-Akt3 in WM115 cells = molecular target: T5, p-Akt3 in WM115 cells (Homo sapiens, UniProt Q9Y243); assay: Phospho-Akt cellular SureFire assay, p-Akt3 in WM115 cells; format: cell-based; conditions: insulin stimulated, read-out: Biological Assay 2 IC50 (nM) Akt3 WM115
T5 construct: SureFire assays to detect cellular p-Akt1, p-Akt2 and p-Akt3 levels in WM115 cells (Akt2/3) and LNCaP cells (Akt1); endogenous in cells; host or cells: WM115 (ECACC 91061232), insulin-stimulated
T5 sequence (Q9Y243 whole entry): as the sequence (Q9Y243 whole entry) above
How it was run: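 WM115 cells were serum-reduced to 0.1% FBS, stimulated with 100 nM insulin for 10 min, then exposed to compound (0.3% DMSO) for 15 min at 37 °C. Lysates were assayed for Thr308-phosphorylated Akt3 by AlphaScreen SureFire using an isoform-specific total Akt3 capture antibody. IC50 was derived from a 4-parameter fit.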

Structure (SMILES) | IC50 (Akt2) [nM] | IC50 (Akt3) [nM] | IC50 (p-Akt1 in LNCaP cells) [nM] | IC50 (p-Akt2 in WM115 cells) [nM] | IC50 (p-Akt3 in WM115 cells) [nM]
CC(C)C(=O)N(C)[C@H]1CC[C@H](CC(=O)Nc2cc(-c3ccccc3)c(-c3ccc([C@]4(N)C[C@](C)(O)C4)cc3)cn2)CC1 [Example 85, N-(trans-4-(2-((5-(4-(trans-1-amino-3-hydroxy-3-methylcyclobutyl)phenyl)-4-phenylpyridin-2-yl)amino)-2-oxoethyl)cyclohexyl)-N-methylisobutyramide] | 77 | 13 | 4700 | 600 | 20
CCCC(=O)N(C)[C@H]1CC[C@H](CC(=O)Nc2cnc(-c3ccc(C4(N)CC4)cc3)c(-c3ccccc3)c2)CC1 [Example A33, N-(trans-4-(2-((6-(4-(1-aminocyclopropyl)phenyl)-5-phenylpyridin-3-yl)amino)-2-oxoethyl)cyclohexyl)-N-methylbutyramide] | 380 | 98 | > 16000 | 2500 | 140
C[C@]1(O)C[C@@](N)(c2ccc(-c3cnc(NC(=O)C[C@H]4CC[C@H](N5CCOC5=O)CC4)cc3-c3ccccc3)cc2)C1 [Example A57, N-(5-(4-(trans-1-amino-3-hydroxy-3-methylcyclobutyl)phenyl)-4-phenylpyridin-2-yl)-2-(trans-4-(2-oxooxazolidin-3-yl)cyclohexyl)acetamide] | 130 | 8 | 5800 | 360 | 17
CC(C)N(C(=O)C1CC1)[C@H]1CC[C@H](CC(=O)Nc2cc(-c3ccccc3)c(-c3ccc([C@]4(N)C[C@](C)(O)C4)cc3)cn2)CC1 [Example A108, N-(trans-4-(2-((5-(4-(trans-1-amino-3-hydroxy-3-methylcyclobutyl)phenyl)-4-phenylpyridin-2-yl)amino)-2-oxoethyl)cyclohexyl)-N-isopropylcyclopropanecarboxamide] | 360 | 23 | > 10000 | 2700 | 110
COC(=O)N(C)[C@H]1CC[C@H](CC(=O)Nc2cc(-c3ccccc3)c(-c3ccc(C(C)(C)N)cc3)cn2)CC1 [Example A48, Methyl (trans-4-(2-((5-(4-(2-aminopropan-2-yl)phenyl)-4-phenylpyridin-2-yl)amino)-2-oxoethyl)cyclohexyl)(methyl)carbamate] |  |  | > 30000 | > 30000 | 1700
COC(=O)N(C)[C@H]1CC[C@H](CC(=O)Nc2cc(-c3ccsc3)c(-c3ccc(C4(N)CCC4)cc3)nn2)CC1 [Example 81, Methyl (trans-4-(2-((6-(4-(1-aminocyclobutyl)phenyl)-5-(thiophen-3-yl)pyridazin-3-yl)amino)-2-oxoethyl)cyclohexyl)(methyl)carbamate] | 1300 | 59 | > 27000 | 4300 | 120
CCC(=O)N(C)[C@H]1CC[C@H](CC(=O)Nc2cc(-c3ccsc3)c(-c3ccc([C@]4(N)C[C@](C)(O)C4)cc3)cn2)CC1 [Example 110, N-(trans-4-(2-((5-(4-(trans-1-amino-3-hydroxy-3-methylcyclobutyl)phenyl)-4-(thiophen-3-yl)pyridin-2-yl)amino)-2-oxoethyl)cyclohexyl)-N-methylpropionamide] | 380 | 17 | 8800 | 1200 | 16

Next, values leading:

IC50 (Akt2) [nM] | IC50 (Akt3) [nM] | IC50 (p-Akt1 in LNCaP cells) [nM] | IC50 (p-Akt2 in WM115 cells) [nM] | IC50 (p-Akt3 in WM115 cells) [nM] | Structure (SMILES)
190 | 13 | 4300 | 1200 | 59 | CN(C(=O)C1CCC1)[C@H]1CC[C@H](CC(=O)Nc2cc(-c3ccccc3)c(-c3ccc([C@]4(N)C[C@](C)(O)C4)cc3)cn2)CC1 [Example A76, N-(trans-4-(2-((5-(4-(trans-1-amino-3-hydroxy-3-methylcyclobutyl)phenyl)-4-phenylpyridin-2-yl)amino)-2-oxoethyl)cyclohexyl)-N-methylcyclobutanecarboxamide]
850 | 40 | > 30000 | 7400 | 250 | COC(=O)N(C)[C@H]1CC[C@H](CC(=O)Nc2cnc(-c3ccc(C4(N)CCC4)cc3)c(-c3ccsc3)c2)CC1 [Example A68, Methyl (trans-4-(2-((6-(4-(1-aminocyclobutyl)phenyl)-5-(thiophen-3-yl)pyridin-3-yl)amino)-2-oxoethyl)cyclohexyl)(methyl)carbamate]
160 | 7 | 1800 | 390 | 11 | COC(=O)N(C(C)C)[C@H]1CC[C@H](CC(=O)Nc2cnc(-c3ccc([C@]4(N)C[C@](C)(O)C4)cc3)c(-c3ccccc3)c2)CC1 [Example 121, Methyl (trans-4-(2-((6-(4-(trans-1-amino-3-hydroxy-3-methylcyclobutyl)phenyl)-5-phenylpyridin-3-yl)amino)-2-oxoethyl)cyclohexyl) (isopropyl)carbamate]
11000 | 750 | > 30000 | 23000 | 1700 | COC(=O)N[C@H]1CC[C@H](CC(=O)Nc2cc(-c3ccccc3)c(-c3ccc(C4(N)CC4)c(F)c3)cn2)CC1 [Example A106, Methyl (trans-4-(2-((5-(4-(1-aminocyclopropyl)-3-fluorophenyl)-4-phenylpyridin-2-yl)amino)-2-oxoethyl)cyclohexyl)carbamate]
3100 | 2300 | > 14000 | 4200 | 180 | COCCN(C)[C@H]1CC[C@H](CC(=O)Nc2cnc(-c3ccc(C4(N)CCC4)cc3)c(-c3ccsc3)c2)CC1 [Example 39, N-(6-(4-(1-aminocyclobutyl)phenyl)-5-(thiophen-3-yl)pyridin-3-yl)-2-(trans-4-((2-methoxyethyl)(methyl)amino)cyclohexyl)acetamide]
910 | 240 | > 27000 | 2700 | 110 | NC1(c2ccc(-c3ncc(NC(=O)C[C@H]4CC[C@H](N5CCCC5=O)CC4)cc3-c3ccsc3)cc2)CCC1 [Example 48, N-(6-(4-(1-aminocyclobutyl)phenyl)-5-(thiophen-3-yl)pyridin-3-yl)-2-(trans-4-(2-oxopyrrolidin-1-yl)cyclohexyl)acetamide]
210 | 22 | 11000 | 3000 | 160 | CC(C)OC(=O)N(C)[C@H]1CC[C@H](CC(=O)Nc2cc(-c3ccccc3)c(-c3ccc([C@]4(N)C[C@](C)(O)C4)cc3)cn2)CC1 [Example A74, Isopropyl (trans-4-(2-((5-(4-(trans-1-amino-3-hydroxy-3-methylcyclobutyl)phenyl)-4-phenylpyridin-2-yl)amino)-2-oxoethyl)cyclohexyl)(methyl)carbamate]
